Laboratory results taken from patent publication US20100160369A1, “S1P1 Agonists and Methods of Making And Using” (EXELIXIS, INC., priority 2008, published 2010).
Like-named read-outs stand apart in the source and are kept apart here.

Target: S1P1 (Homo sapiens, UniProt P21453)
Assay: CNG cAMP Assay (Assay 1)
Format: cell-based
Design: host or cells: HEK293 cells expressing the CNG channel
Procedure: Frozen HEK293 cells expressing the CNG channel and S1P1 (BD Biosciences, San Jose, Calif.) were thawed and plated into the wells of a black, clear bottom, 384-well CellBind plate (Corning, Corning, N.Y.) at 14,000 cells per well. HEK293 cells expressing the CNG channel and CB1 (BD Biosciences) were cultured and plated under the same conditions. The cells were incubated for 16 h at 37° C. in complete DMEM medium (Invitrogen Carlsbad, Calif.) containing 10% FBS (HyClone Logan, Utah), 250 μg/mL geneticin (Invitrogen), and 1 μg/mL puromycin (Sigma-Aldrich, St. Louis, Mo.). A membrane potential dye (BD Biosciences) was added and the plates were incubated for 2-2.5 h at room temperature.
Test compounds were tested at maximum concentrations of 10 μM. Compounds were diluted in DMSO (10 concentration points, 3-fold each) and added to the assay plate at final DMSO concentrations of 1.8%. For each compound, there were duplicate assay plates and each assay plate had duplicate wells per concentration point. Test compounds were added to the cells in a DPBS solution containing 25 μM Ro 20-1724 (Sigma-Aldrich), 500 nM of the A2b receptor agonist NECA (Sigma-Aldrich) and 10 nM (EC95) of S1P (Avanti Alabaster, Ala.) and incubated for 90 min. The assay plate was read before compound addition (T0) and after the 90 min incubation (T90) using an EnVision plate reader (PerkinElmer, Waltham, Mass.) at an excitation wavelength of 350 nm and an emission wavelength of 590 nm. The T90/T0 ratio was determined for each concentration of the test compounds. The percent agonist activity was determined as [(test compound−DMSO alone control)/(NECA alone control−DMSO alone control)*100]. The percent activities were plotted against compound concentration to determine EC50 using XLFit (IDBS, Alameda, Calif.). The control used for calculating rEC50 in the S1P1 CNG agonist assay was DMSO.
Assay 1 is the CNG cAMP Assay as described in Biological Example 1. Assay 2a and 2b are the Tango™ β-arrestin Recruitment Assay in HEK293 and U2OS cells, respectively, as described in Biological Example 2. Assay 3a is the hS1P1R GTPγS Binding Assay as described in Biological Example 3. Assay 3b is the GTP-Eu Binding Assay as described in Biological Example 3. EC50's were measured unless otherwise noted. […] In the table, “nt” means the Compound was not tested and “no” means the compound was tested but had no measurable activity under the assay conditions employed.

[1] = relative EC50 was measured (footnote 1), read-out: Assay 1 Relative EC50

Chain of S1P1 (P21453 whole entry): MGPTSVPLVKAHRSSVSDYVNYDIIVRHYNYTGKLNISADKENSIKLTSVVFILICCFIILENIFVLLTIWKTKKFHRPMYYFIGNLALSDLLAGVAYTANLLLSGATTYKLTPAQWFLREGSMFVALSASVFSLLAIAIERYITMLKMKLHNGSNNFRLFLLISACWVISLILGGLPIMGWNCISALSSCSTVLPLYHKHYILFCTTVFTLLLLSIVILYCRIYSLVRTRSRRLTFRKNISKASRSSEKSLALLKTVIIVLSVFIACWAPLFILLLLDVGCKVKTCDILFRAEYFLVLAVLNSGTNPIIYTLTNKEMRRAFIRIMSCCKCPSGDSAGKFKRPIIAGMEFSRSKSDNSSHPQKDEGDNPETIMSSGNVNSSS

Compound | EC50 [1] [nM] | EC50 (read-out: Assay 1 EC50) [nM]
CS(=O)(=O)Nc1ccc(-c2noc(-c3cn4cc(C#N)cc(Br)c4n3)n2)c(Cl)c1 [Example 114, N-{4-[5-(8-bromo-6-cyanoimidazo[1,2-a]pyridin-2-yl)-1,2,4-oxadiazol-3-yl]-3-chlorophenyl}methanesulfonamide] | 1000 to 5000 | –
CS(=O)(=O)Nc1ccc(-c2noc(-c3cn4cc(C(F)(F)F)cc(Cl)c4n3)n2)cc1Cl [Example 122, N-(2-chloro-4-{5-[8-chloro-6-(trifluoromethyl)imidazo[1,2-a]pyridin-2-yl]-1,2,4-oxadiazol-3-yl}phenyl)methanesulfonamide] | – | ≤ 100
Cc1cc(Br)c2nc(-c3nc(-c4ccc(NS(C)(=O)=O)cc4Cl)no3)cn2c1 [Example 125, N-{4-[5-(8-bromo-6-methylimidazo[1,2-a]pyridin-2-yl)-1,2,4-oxadiazol-3-yl]-3-chlorophenyl}methanesulfonamide] | 1000 to 5000 | –
CC(C)(O)c1ccc(-c2noc(-c3cn4cc(C(F)(F)F)cc(Cl)c4n3)n2)c(Cl)c1 [Example 126, 2-(3-chloro-4-{5-[8-chloro-6-(trifluoromethyl)imidazo[1,2-a]pyridin-2-yl]-1,2,4-oxadiazol-3-yl}phenyl)propan-2-ol] | – | 100 to 500
O=C(O)C1CN(Cc2ccc(-c3noc(-c4cn5cc(C(F)(F)F)cc(Cl)c5n4)n3)cc2Cl)C1 [Example 127, 1-[(2-chloro-4-{5-[8-chloro-6-(trifluoromethyl)imidazo[1,2-a]pyridin-2-yl]-1,2,4-oxadiazol-3-yl}phenyl)methyl]azetidine-3-carboxylic acid] | – | 100 to 500
C=CS(=O)(=O)Nc1ccc(-c2noc(-c3cn4cc(C(F)(F)F)cc(Cl)c4n3)n2)c(Cl)c1 [Example 128, N-(3-chloro-4-{5-[8-chloro-6-(trifluoromethyl)imidazo[1,2-a]pyridin-2-yl]-1,2,4-oxadiazol-3-yl}phenyl)ethenesulfonamide] | – | 100 to 500
CS(=O)(=O)Nc1ccc(-c2noc(-c3cn4cc(C(F)(F)F)cc(Cl)c4n3)n2)c(F)c1 [Example 129, N-(4-{5-[8-chloro-6-(trifluoromethyl)imidazo[1,2-a]pyridin-2-yl]-1,2,4-oxadiazol-3-yl}-3-fluorophenyl)methanesulfonamide] | – | 100 to 500

Second part, the compound after the results:

EC50 [1] [nM] | EC50 (read-out: Assay 1 EC50) [nM] | Compound
– | ≤ 100 | CS(=O)(=O)Nc1ccc(-c2noc(-c3cn4cc(C(F)(F)F)cc(Cl)c4n3)n2)cc1 [Example 117, N-(4-{5-[8-chloro-6-(trifluoromethyl)imidazo[1,2-a]pyridin-2-yl]-1,2,4-oxadiazol-3-yl}phenyl)methanesulfonamide]
– | ≤ 100 | Cc1cc(-c2noc(-c3cn4cc(C(F)(F)F)cc(Cl)c4n3)n2)ccc1NS(C)(=O)=O [Example 119, N-(4-{5-[8-chloro-6-(trifluoromethyl)imidazo[1,2-a]pyridin-2-yl]-1,2,4-oxadiazol-3-yl}-2-methylphenyl)methanesulfonamide]
– | 500 to 1000 | O=C(O)CNCc1ccc(-c2noc(-c3cn4cc(C(F)(F)F)cc(Cl)c4n3)n2)c(Cl)c1 [Example 120, N-[(3-chloro-4-{5-[8-chloro-6-(trifluoromethyl)imidazo[1,2-a]pyridin-2-yl]-1,2,4-oxadiazol-3-yl}phenyl)methyl]glycine]
– | 500 to 1000 | O=C(O)C1CN(Cc2cccc(-c3noc(-c4cn5cc(C(F)(F)F)cc(Cl)c5n4)n3)c2)C1 [Example 121, 1-[(3-{5-[8-chloro-6-(trifluoromethyl)imidazo[1,2-a]pyridin-2-yl]-1,2,4-oxadiazol-3-yl}phenyl)methyl]azetidine-3-carboxylic acid]
– | 100 to 500 | O=C(O)CCNCc1ccc(-c2noc(-c3cn4cc(C(F)(F)F)cc(Cl)c4n3)n2)cc1 [Example 123, N-[(4-{5-[8-chloro-6-(trifluoromethyl)imidazo[1,2-a]pyridin-2-yl]-1,2,4-oxadiazol-3-yl}phenyl)methyl]-beta-alanine]
